Measured values: a melting point compilation (Tetko et al.; mined from patent text by program, amines drawn as free bases though some values may be those of a salt)

| Structure (SMILES) | melting point |
| --- | --- |
| O=CC1=CC2=C(OC1)c1ccccc1S(=O)(=O)N2 | 108 to 110 °C |
| O=c1c(O)coc2ccccc12 | 178 to 179 °C |
| N#CN(Cc1ccccc1)C(=O)CCCC(=O)N(C#N)Cc1ccccc1 | 97.5 to 100 °C |
| CSCC[C@H](N)C(=O)NC(=O)C(CS)Cc1ccccc1 (some centres undefined) | 153 to 156 °C |
| Clc1ccc(-c2ccc(CBr)cc2)cc1 | 64 to 66 °C |
| COc1ccccc1Sc1c(NS(=O)(=O)c2ccc(C(C)(C)C)cc2)nc(CO)nc1OC | 152 °C |
| CN(C(=O)Nc1ccc(Cl)cc1)c1nncs1 | 182 °C |
| O=C1OC(=O)c2c1ccc1sc3ccccc3c21 | 248 to 250 °C |
| O=c1[nH]nnn1-c1ccc([N+](=O)[O-])cc1F | 148 to 150 °C |
| O=C(NC[C@@H]1CN2C(=O)C[C@H]2O1)C1CCCCC1 (racemic) | 83 to 85 °C |
| Cc1nc(N)c2nc(O)n(Cc3cc(-c4ccc(F)cc4)no3)c2c1C | 250 °C |
| CC(=O)Nc1ccc2c(c1)CC(N(C)C)C2 (centres undefined) | 94 to 96 °C |
| CC(=O)N1CCC(c2cc(F)c(C(=O)O)cc2F)CC1 | 206 to 207 °C |
| CC(=O)Nc1ccc(S(=O)(=O)Nc2cscn2)cc1 | 231 to 232 °C |
| O=C(NCc1ccccc1)Oc1ccc2c(ccn2Cc2ccncc2)c1 | 112 to 114 °C |
| COC(=O)c1ccc2cccc3c2c1-c1ccccc1-3 | 70 to 71 °C |
| CS(=O)(=O)N1CCN(C(CC2Cc3cc(C(N)=O)ccc3O2)C(=O)NO)CC1 (centres undefined) | 185 °C |
| CC(=O)c1cccc(S(=O)(=O)NCc2ccccc2-c2ccccc2C(=O)NCc2ccccc2)c1 | 182 °C |
| CCOC(=O)c1ccc(C(=O)c2ccc(N)cc2)cc1 | 125 °C |
| C=CCOc1cccc(-c2cn3ccc4ccccc4c3n2)c1 | 83 to 85 °C |
| CC(C(N)=O)c1ccc2c(=O)c3ccccc3ccc2c1 (centres undefined) | 158 to 159 °C |
| CSc1nn2c(O)cc(C)nc2c1S(=O)(=O)c1ccc(C(C)C)cc1 | 183 to 184 °C |
| Cc1[nH]c(=O)c(C#N)cc1-c1ccccc1OCCCC(=O)O | 218 to 220 °C |
| O=C(O)c1cn(C2CC2)c2nc(N3CCC(n4ccnn4)CC3)c(F)cc2c1=O | 246 to 248 °C |
| COC(=O)COc1cc2c(c3c1c(C(=O)C(N)=O)c(C)n3Cc1ccccc1)CCC2 | 135 to 138 °C |

| Structure (SMILES) | melting point |
| --- | --- |
| CCc1nc(/C=C/c2cccc(Cl)c2Cl)no1 | 107 to 109 °C |
| CC1(C)CC(=C(c2ccc(O)cc2)c2ccc(/C=C/C(=O)O)cc2)CC(C)(C)C1 | 219 to 220 °C |
| CN(C)C(=O)N1CCC(C(=O)N(CCCN2CCC(Cc3ccccc3)CC2)c2ccc(Cl)c(Cl)c2)CC1 | 109 to 112 °C |
| COC(=O)c1ccc(S(C)(=O)=O)c(-c2nccs2)c1Cl | 135 to 138 °C |
| C=CCS(=O)(=O)c1cccnc1S(N)(=O)=O | 178 °C |
| COc1cc(Nc2nc3cccc(-c4ccc(C#N)cc4)c3o2)cc(OC)c1OC | 222 to 223 °C |
| CNC(=O)c1cc(CN2C(=O)C3(COc4cc5c(cc43)OCO5)c3ccccc32)oc1C(F)(F)F (centres undefined) | 202 to 203 °C |
| O=C1Nc2cc(CN3CCC(c4ccccc4)CC3)ccc2OC1F (centres undefined) | 217 to 221 °C |
| Clc1ccc(Cl)n2nc(SCc3ccccc3)nc12 | 103 to 104 °C |
| COC1=C(OC)C(=O)C2=C(CC(CCCCCCCCN3C(=O)c4ccccc4C3=O)C2)C1=O | 91 to 93 °C |
| COc1ccc(S(=O)(=O)N2C(=O)C(NC(C)=O)(c3ccccc3)c3cc(Cl)ccc32)c(OC)c1 (centres undefined) | 253 °C |
| CCNC1=CC(=O)c2c(OC)ccc(OC)c2C1=O | 172 to 173 °C |
| Cc1ccc(-c2nc3ccccc3o2)c(F)c1 | 115 to 117 °C |
| CCCCc1nc2cnc3cccnc3c2n1CCCCNC(=O)OC(C)(C)C | 96 to 98 °C |
| NC(=O)COc1ccccc1[N+](=O)[O-] | 190 to 191 °C |
| Cc1cc2c(c3c1NC(=O)CC3)OC(CN)C2 (centres undefined) | > 300 °C |
| O=C(Oc1cc(F)ccc1[N+](=O)[O-])c1cc2cc(CCl)ccc2oc1=O | 205 to 208 °C |
| C=C(C)[C@@H]1CC[C@]2(C(=O)N[C@H]3C[C@@H](C(=O)N4CCCC4)C3(C)C)CC[C@]3(C)[C@H](CC[C@@H]4[C@@]5(C)CC[C@H](OC(=O)CC(C)(C)C(=O)O)C(C)(C)[C@@H]5CC[C@]43C)[C@@H]12 | 110 to 114 °C |
| CN1Cc2c(CO)ncn2-c2cccc(Cl)c2C1=O | 207 to 208 °C |
| CCNc1nc(C)c(-c2ccnc(Nc3ccc(N4CCCCC4)c(C)c3)n2)s1 | 213 to 214 °C |
| CCCCCCCCON1C(C)(C)CC(NC(=O)CCc2cc(-n3nc4ccccc4n3)c(O)c(C(C)(C)C)c2)CC1(C)C | 153 to 159 °C |
| Cc1ccc([N+](=O)[O-])cc1Nc1ccc(C(F)(F)F)cn1 | 103 to 105 °C |
| CCCCc1cc(O)cc(=O)o1 | 110 to 111 °C |
| CC(=O)NCCCCC1Cc2ccccc2C1 | 83 to 84 °C |
| C#CCc1c(C)nc2c(OCc3c(C)cccc3NC(=O)C(C)=O)cccn12 | 158 to 160 °C |

| Structure (SMILES) | melting point |
| --- | --- |
| NCc1cc(Cl)ccc1O | 160 to 162 °C |
| Cc1cc(C(=N)NO)ccc1-c1ccc(-c2nc3cc(C(=N)NO)ccc3[nH]2)cc1 | 300 to 302 °C |
| O=C(NC(=O)c1ccccc1Cl)Nc1ccc(F)c(C(F)(F)F)c1Cl | 208 °C |
| CS(=O)(=O)c1c(F)cc(C2=C(c3ccccc3)C(=O)OC2)cc1F | 204 °C |
| CC(C)NC(=O)NCCCOc1cc(CN2CCCCC2)ccn1 | 58 to 60 °C |
| CN1CCN(c2c(F)c(NCc3ccccc3)c3c(c2F)n2c(=O)n(OCc4ccccc4)c(=O)cc2n3C2CC2)CC1 | 214 °C |
| CCCCOc1ncc(C(C)=O)cc1-c1nn2c(CC)nc(CN3CCOCC3)c2c(=O)[nH]1 | 145 to 149 °C |
| CN1CCc2nc3ccc(Cl)cc3c(Oc3ccccc3)c2C1 | 182 to 184 °C |
| c1coc(C2=Nc3ccccc3N3CCc4cccc2c43)c1 | 144 to 146 °C |
| CC(=O)c1oc2c(sc3ccccc32)c1O | 196 to 197 °C |
| CCOCCN(CC1=CCC(NC(C)=O)(Oc2ccccc2)C=C1)C(=O)C(Cl)Cl (centres undefined) | 114 to 116 °C |
| O=c1[nH]c2cc(S(=O)c3cccc4cnccc34)c([N+](=O)[O-])cc2s1 (centres undefined) | > 270 °C |
| Cc1cc(-n2nc(C(F)(F)F)cc2-c2ccc(S(C)(=O)=O)cc2)ccc1Br | 127 to 129 °C |
| CC(C)(O)c1ccc(-c2cnc3c(n2)N(CC2CCOCC2)CC(=O)N3)cn1 | 268 to 269 °C |
| CN(C)C(=O)c1nc2n(n1)-c1ccc(Cl)cc1C(c1ccccc1F)=NC2 | 180 to 182 °C |
| CC(C)n1nc(-c2sc(NC(=O)c3ccc(CCl)cc3)nc2-c2ccccc2)ccc1=O | > 250 °C |
| Cc1cccc(C=CC(=O)O)c1[N+](=O)[O-] | 230 to 235 °C |
| COc1ccc(-c2cccc(Nc3nccc(-c4sc(N)nc4-c4ccccc4)n3)c2)cc1OC | 236 to 237 °C |
| CSCCC(=N)Nc1cn(-c2cccnc2)nc1Cl | 137 °C |
| CS(=O)(=O)Nn1c(=O)[nH]c2cc(C(F)(F)F)c(-n3cnc(Br)c3)cc2c1=O | 229 to 233 °C |
| O=C1CC(c2cccc(-n3ccnc3)c2)=Nc2cc(N3CC[C@@H](O)C3)c(-c3ccc(F)cc3)cc2N1 | 155 to 158 °C |
| CCOC(=O)/C(=N/OCc1ccccc1)c1ccc(OCCOc2ccc3ccccc3c2)s1 | 111 to 112 °C |
| Cc1nc(NC(=O)c2ccccc2)sc1C(=O)NCc1cccc(F)c1 | 216 to 217 °C |
| O=C1N(Cc2nnc(C(F)(F)F)o2)c2ccccc2C12COc1cc3c(cc12)OCCO3 (centres undefined) | 137 to 139 °C |
| CCOC(=O)NCN1C(=O)CN=C(c2ccccc2Cl)c2cc(Cl)ccc21 | 147 to 149 °C |

| Structure (SMILES) | melting point |
| --- | --- |
| COC(=O)CNC(=O)c1ncccc1S | 178 to 179 °C |
| O=c1[nH]c(Cl)c(Cc2ccccc2)c(=O)n1Cc1ccccc1 | 146 to 148 °C |
| COc1cc(S(=O)(=O)Nc2ccccc2)c(OC)cc1NC(=O)[C@@](C)(O)C(F)(F)F | 194 to 195 °C |
| CC(Nn1cncn1)(c1ccc(F)cc1)c1ccc(F)cc1 | 114 to 119 °C |
| OCCc1c(C2=CCC(c3ccccc3)(N3CCCC3)CC2)[nH]c2ccc(F)cc12 (centres undefined) | 188 to 191 °C |
| COC(=O)C12COc3cc(C(F)(F)F)ccc3C1=NN(C(=O)Nc1ccc(Br)cn1)C2 (centres undefined) | 179 to 181 °C |
| CCOC(=O)Cc1nc2cc(Cl)ccc2o1 | 90 to 91 °C |
| CCOCCC(Cc1ccc(NC(=O)NC(=O)c2ccc(C(N)=S)cc2)cc1)C(=O)OC(C)(C)C (centres undefined) | 199 to 201 °C |
| COC(=O)CCC#Cc1cc(Cl)ccc1NS(=O)(=O)c1cccc(Cl)c1Cl | 64 °C |
| O=C(c1ccc(Cn2cnc3ccncc32)cc1)N1CCOCC1 | 143 to 144 °C |
| COc1c(O)ccc(C(=O)c2ccccc2)c1Cl | 123 to 125 °C |
| COc1nc2ccc(Br)cc2c2c1C(C)(OCC(O)Cn1ccc(-c3ccc(C(F)(F)F)cc3)n1)c1ccccc1-2 (centres undefined) | 65 to 67 °C |
| CC(=O)Nc1sc(-c2ccc(F)cc2)cc1C(N)=O | 230 to 233 °C |
| Cc1cc2c(Cl)cc(F)c(-n3c(=O)cc(C(F)(F)F)n(C)c3=O)c2o1 | 196 to 197 °C |
| N#CC(c1ccccc1Cl)N1CCc2sccc2C1 (centres undefined) | 121 to 124 °C |
| BrCC=Cc1ccc(-c2cnc(CSCCOc3ccccc3)o2)cc1 | 88 to 91 °C |
| C=Cc1c(CC)nc(CC)c(CO)c1-c1ccccc1 | 84 to 85 °C |
| CCCc1c(CSc2nnc(SCCCS(=O)(=O)CC(=O)O)s2)ccc(C(C)=O)c1O | 122 to 125 °C |
| O=c1[nH]cnc2cc(OCc3ccccc3)ccc12 | 267 to 269 °C |
| COc1ccc2c(c1OC)CC(c1ccccc1)CC2=O (centres undefined) | 127 to 128 °C |
| COc1ccc(-c2nc(CN(c3ccccc3)c3ccccc3)nc3cc(OC)c(OC)cc23)cc1OC | 215 to 216 °C |
| CC(C)=CCCC(C)=CCOc1ccc(C(=O)NCc2ccncc2)cc1 | 108 to 110 °C |
| NCC(=O)SCC(Cc1ccccc1)C(=O)Nc1cccc(C(=O)O)c1 (centres undefined) | 91 to 96 °C |
| CCc1cc(=O)c2c([nH]1)COCC2 | 216 to 218 °C |
